Values after ≈ are worked out from the molar mass of the structure shown.
Experiments:
Staphylococcus aureus [1] = experiment: Antimicrobial activity against Staphylococcus aureus 209P; format: functional
Pseudomonas aeruginosa [2] = experiment: Antimicrobial activity against Pseudomonas aeruginosa 104; format: functional
Proteus vulgaris = experiment: Antimicrobial activity against Proteus vulgaris HX19; format: functional
Klebsiella pneumoniae [3] = experiment: Antimicrobial activity against Klebsiella pneumoniae 602; format: functional
Proteus mirabilis = experiment: Antimicrobial activity against Proteus mirabilis GN2425; format: functional
Escherichia coli [4] = experiment: Antimicrobial activity against Escherichia coli NIHJ; format: functional
Pseudomonas aeruginosa [5] = experiment: Antimicrobial activity against Pseudomonas aeruginosa TU408; format: functional
Salmonella typhi = experiment: Antimicrobial activity against Salmonella typhi T58; format: functional, Salmonella enterica subsp. enterica serovar Typhi; conditions: Salmonella enterica
Staphylococcus aureus [6] = experiment: Antimicrobial activity against Staphylococcus aureus 209p JC1; format: functional
Klebsiella pneumoniae [7] = experiment: Antimicrobial activity against Klebsiella pneumoniae PCI602; format: functional
Escherichia coli [8] = experiment: Antimicrobial activity against Escherichia coli NIHJ JC2; format: functional

| Compound | MIC (Staphylococcus aureus [1]) [µg/mL] | MIC (Pseudomonas aeruginosa [2]) [µg/mL] | MIC (Proteus vulgaris) [µg/mL] | MIC (Klebsiella pneumoniae [3]) [µg/mL] | MIC (Proteus mirabilis) [µg/mL] | MIC (Escherichia coli [4]) [µg/mL] | MIC (Pseudomonas aeruginosa [5]) [µg/mL] | MIC (Salmonella typhi) [µg/mL] | MIC (Staphylococcus aureus [6]) [µg/mL] | MIC (Klebsiella pneumoniae [7]) [µg/mL] | MIC (Escherichia coli [8]) [µg/mL] |
| --- | --- | --- | --- | --- | --- | --- | --- | --- | --- | --- | --- |
| CCn1cc(C(=O)O)c(=O)c2ccc(Cl)cc21 | 50 (≈ 199 µM) | 200 (≈ 795 µM) | 25 (≈ 99.3 µM) | 25 (≈ 99.3 µM) | 12.5 (≈ 49.7 µM) | 25 (≈ 99.3 µM) |  |  |  |  |  |
| CCn1cc(C(=O)O)c(=O)c2ccc(C)cc21 | 200 (≈ 865 µM) | > 200 | 12.5 (≈ 54.1 µM) | 25 (≈ 108 µM) | 12.5 (≈ 54.1 µM) | 6.25 (≈ 27 µM) | > 50 | 12.5 (≈ 54.1 µM) | > 50 | 6.25 (≈ 27 µM) | 6.25 (≈ 27 µM) |
| CCn1cc(C(=O)O)c(=O)c2ccc(C)nc21 [NALIDIXIC ACID] | 100 (≈ 431 µM) | 200 (≈ 861 µM) | 1.56 (≈ 6.72 µM) | 6.25 (≈ 26.9 µM) | 12.5 (≈ 53.8 µM) | 3.13 (≈ 13.5 µM) | > 50 | 6.25 (≈ 26.9 µM) | > 50 | 6.25 (≈ 26.9 µM) | 6.25 (≈ 26.9 µM) |
